Assay [1] has as its target T1, FicD^E234G (Homo sapiens, UniProt Q9BVA6, E234G).
T1 construct: soluble ER luminal domain (residues 105 to 458) of wild-type human FicD and three mutants; 6xHis-Sumo (N, cleaved yes); made in house; host or cells: Rosetta(DE3) E. coli
T1 sequence (Q9BVA6 105-458 E234G): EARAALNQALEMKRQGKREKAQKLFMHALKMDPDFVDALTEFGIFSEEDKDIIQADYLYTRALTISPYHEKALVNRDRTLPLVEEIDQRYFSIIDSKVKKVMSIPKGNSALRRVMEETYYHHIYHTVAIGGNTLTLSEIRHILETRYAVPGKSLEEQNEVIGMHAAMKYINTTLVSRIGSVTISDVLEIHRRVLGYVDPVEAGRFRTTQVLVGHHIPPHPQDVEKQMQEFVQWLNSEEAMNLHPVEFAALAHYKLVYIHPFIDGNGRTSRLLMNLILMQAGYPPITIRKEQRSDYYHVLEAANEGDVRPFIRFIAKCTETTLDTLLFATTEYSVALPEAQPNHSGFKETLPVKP
Briefly: Total (intact) mass analysis of FicD^E234G incubated with FPP. The settings on record: 50uM FPP, 5mM MgCl2. An excerpt: To reveal the mechanism of FicD inhibition by FPP, we leveraged the FicD^E234G mutant for structural studies. We soaked FPP into crystals of the FicD^E234G variant and solved the ligand-bound structure (Fig. 5 A and B). […] The diphosphate group of FPP closely overlapped with the ADP diphosphate when superimposed with a FicD^E234G-ADP structure (Fig. 5 A, Left), and the hydrophobic isoprenyl groups of FPP overlap with the nucleoside in the active site binding pocket (Fig. 5 A, Right). The FPP diphosphate binds directly to the side chains of N369, R371, with the sidechain of D367 coordinating the Mg^2+ (Fig. 5B). These interactions mimic those observed between ADP/ATP and FicD ([26]). […] As previously noted, only GPP and FPP could bind to and inhibit FicD, but analogs of the isoprenoid-pyrophosphate metabolites (geraniol, GMP, farnesol, FMP, DMAPP, and MVAPP) could not (Fig. 2 B–D). Together, these observations indicate both the pyrophosphate head and the long isoprenoid tail of GPP/FPP contribute to the binding with FicD. […]
Intact mass analysis of proteins was performed by the UT Southwestern Proteomics Core. Intact protein samples were analyzed by LC/MS, using a Sciex X500B QTOF mass spectrometer operating in positive ion mode, coupled to an Agilent 1290 Infinity II HPLC. […]

The target in assay [2] is T2, FicD^WT (Homo sapiens, UniProt Q9BVA6).
T2 construct: soluble ER luminal domain (residues 105 to 458) of wild-type human FicD; 6xHis-Sumo (N, cleaved yes); made in house; host or cells: Rosetta(DE3) E. coli
T2 sequence (Q9BVA6 105-458): T1 sequence (Q9BVA6 105-458 E234G) with G130E
The arrangement: method as in PMID 25435325. The settings on record: cited from earlier work.

The structures appear in SMILES notation. Residue numbers refer to the chain shown, from its start.

`CC(C)=CCC/C(C)=C/CC/C(C)=C/COP(=O)(O)OP(=O)(O)O` [FPP, farnesyl-pyrophosphate]: in assay [1], the “mass shift associated with putative FPP automodification” value was “no mass shift”.
On to `Nc1ncnc2c1ncn2[C@@H]1O[C@H](COP(=O)(O)OP(=O)(O)O)[C@@H](O)[C@H]1O` [ADP], for which the Kd (as a rule, the free concentration of one partner at which half of the binding sites on the other are occupied at equilibrium, for simple one-to-one binding) in assay [2] was 1500 nM.

The values above are taken from publication PMC12974487, “Inhibition of FicD-mediated AMPylation and deAMPylation by isoprenoid diphosphates” (Proceedings of the National Academy of Sciences of the …, 2026).
